{"source": "patent US5234944A", "about": "(priority 1986, dated 1993)", "key": {"[1]": {"assay": "Hypotensive activity on the anaesthetized rat", "format": "in vivo, rat (Sprague Dawley)", "conditions": "injected into jugular vein"}, "opiated receptor K": {"molecular_target": "T1, opiated receptor K (Cavia porcellus, UniProt P41144)", "T1 construct": "Membrane residue prepared from the cerebella of guinea-pigs; from tissue; host or cells: guinea-pig cerebellum membranes", "T1 sequence (P41144 whole entry)": "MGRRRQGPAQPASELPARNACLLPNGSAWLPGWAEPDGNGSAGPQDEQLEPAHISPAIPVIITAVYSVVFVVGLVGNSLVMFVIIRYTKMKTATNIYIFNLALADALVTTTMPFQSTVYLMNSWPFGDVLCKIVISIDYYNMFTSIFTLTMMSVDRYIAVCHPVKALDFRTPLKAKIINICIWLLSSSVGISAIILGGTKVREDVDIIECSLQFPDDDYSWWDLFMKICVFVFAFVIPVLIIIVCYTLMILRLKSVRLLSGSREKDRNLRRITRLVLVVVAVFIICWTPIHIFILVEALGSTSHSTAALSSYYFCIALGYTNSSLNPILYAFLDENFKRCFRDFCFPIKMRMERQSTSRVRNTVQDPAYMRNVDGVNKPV", "assay": "Liaison with the opiated receptor K in vitro (displacement of 3H ethylketocyclazocine)", "format": "binding", "conditions": "guinea-pig cerebella membranes, 3H ethylketocyclazocine 1 nM, Tris pH 7.7, 25° C., 40 minutes"}, "[2]": {"assay": "Measurement of the diuretic activity", "format": "in vivo, rat (Sprague Dawley)", "conditions": "oral, t1h-t5h", "procedure": "4) Measurement of the diuretic activity\nMale rats of Sprague Dawley strain weighing 180 to 200 g were not fed for 17 hours before the test, but received water ad libitum. Groups of 8 animals were set up for each dose tested and the rats received the product under test or its vehicle orally. The urinary volume was measured every hour for the 5 hours following the administration of the product. At the end of this period, the urines were collected and the activity of the product was expressed as a percentage of variation calculated on the urinary volume corresponding to the period t1h -t5h."}, "[3]": {"format": "in vivo, rat", "conditions": "intravenous, aconitine 5 minutes after"}, "[4]": {"conditions": "50% inhibiting concentration (IC50)"}, "[5]": {"conditions": "read-out: 50% inhibiting concentration (IC50)"}}, "note": "Where two headings read alike, the source gives them in different places."}
{"smiles": "CN(C(=O)Cc1ccc(Cl)c(Cl)c1)[C@H]1[C@H](N2CCCC2)c2ccccc2C12CCOCC2", "note": "(relative stereo) [Example 4, [trans (±)]3,4-dichloro-N-[2,2',3,3',5',6'-hexahydro-3-(1-pyrrolidinyl)-spiro (1H-inden-1-,4'-(4H)-pyran]-2-yl]-N-methyl-benzene-acetamide]", "values": [{"measurement": "variation of arterial pressure, 5 min. after administration", "setting": "[1]; dose 10 mg/kg", "result": -26, "unit": "%"}, {"measurement": "variation of arterial pressure, 30 min. after administration", "setting": "[1]; dose 10 mg/kg", "result": -14, "unit": "%"}]}
{"smiles": "CN(C(=O)Cc1ccc([N+](=O)[O-])cc1)[C@@H]1c2ccccc2C[C@H]1N1CCCC1", "note": "(relative stereo) [Example 8, [Trans (±)]N-[2,3-dihydro-2-(1-pyrrolidinyl)-1H-inden-1-yl]-N-methyl-4-nitro-benzene-acetamide]", "values": [{"measurement": "IC50", "setting": "opiated receptor K; [4]", "result": 7.1, "unit": "nM"}, {"measurement": "variation of arterial pressure, 5 min. after administration", "setting": "[1]; dose 1 mg/kg", "result": -25, "unit": "%"}, {"measurement": "variation of arterial pressure, 30 min. after administration", "setting": "[1]; dose 1 mg/kg", "result": -27, "unit": "%"}, {"measurement": "percentage of variation of the urinary volume", "setting": "[2]; dose 2.5 mg/kg", "result": "+124%"}, {"measurement": "percentage of variation of the urinary volume", "setting": "[2]; dose 5 mg/kg", "result": "+130%"}, {"measurement": "percentage of extension of time of appearance of disturbances of the cardiac rhythm", "setting": "[3]; dose 5 mg/kg", "result": "+23%"}]}
{"smiles": "CN(C(=O)Cc1cccc(C(F)(F)F)c1)[C@@H]1c2ccccc2C[C@H]1N1CCCC1", "note": "(relative stereo) [Example 6, [Trans (±)]N-[2,3-dihydro-2-(1-pyrrolidinyl)-1H-inden-1-yl]-N-methyl-3-(trifluoromethyl)-benzene-acetamide]", "values": [{"measurement": "IC50", "setting": "opiated receptor K; [4]", "result": 7.5, "unit": "nM"}]}
{"smiles": "CN(C(=O)COc1ccc(Cl)c(Cl)c1)[C@@H]1c2ccccc2C[C@H]1N1CCCC1", "note": "(relative stereo) [Example 14, [trans (±)]2-(3,4-dichlorophenoxy)-N-[2,3-dihydro-2-(1-pyrrolidinyl)-1H-inden-1-yl]-N-methyl-acetamide]", "values": [{"measurement": "IC50", "setting": "opiated receptor K; [5]", "result": 3.8, "unit": "nM"}, {"measurement": "variation of arterial pressure, 5 min. after administration", "setting": "[1]; dose 1 mg/kg", "result": -22, "unit": "%"}, {"measurement": "variation of arterial pressure, 30 min. after administration", "setting": "[1]; dose 1 mg/kg", "result": -26, "unit": "%"}, {"measurement": "percentage of variation of the urinary volume", "setting": "[2]; dose 5 mg/kg", "result": "+68%"}]}
{"smiles": "CC(C(=O)N(C)[C@@H]1c2ccccc2C[C@H]1N1CCCC1)c1ccc(Cl)c(Cl)c1", "note": "(mixture of isomers) [Example 22, [Trans (±)]3,4-dichloro-N-[2,3-dihydro-2-(1-pyrrolidinyl)-1H-inden-1-yl]-N-α-dimethyl-benzene-acetamide]", "values": [{"measurement": "IC50", "setting": "opiated receptor K; [5]", "result": 7.1, "unit": "nM"}]}
{"smiles": "CN(C(=O)Cc1ccc(C(F)(F)F)cc1)[C@@H]1c2ccccc2C[C@H]1N1CCCC1", "note": "(relative stereo) [Example 5, [Trans (±)]N-[2,3-dihydro-2-(1-pyrrolidinyl)-1H-inden-1-yl]-N-methyl 4-(trifluoromethyl)-benzene-acetamide]", "values": [{"measurement": "IC50", "setting": "opiated receptor K; [4]", "result": 3, "unit": "nM"}, {"measurement": "variation of arterial pressure, 5 min. after administration", "setting": "[1]; dose 1 mg/kg", "result": -20, "unit": "%"}, {"measurement": "variation of arterial pressure, 30 min. after administration", "setting": "[1]; dose 1 mg/kg", "result": -20, "unit": "%"}, {"measurement": "variation of arterial pressure, 5 min. after administration", "setting": "[1]; dose 10 mg/kg", "result": -25, "unit": "%"}, {"measurement": "variation of arterial pressure, 30 min. after administration", "setting": "[1]; dose 10 mg/kg", "result": -10, "unit": "%"}, {"measurement": "percentage of extension of time of appearance of disturbances of the cardiac rhythm", "setting": "[3]; dose 10 mg/kg", "result": "+15.6%"}]}
{"smiles": "CN(C(=O)Cc1ccc([N+](=O)[O-])cc1)[C@@H]1c2ccccc2C[C@H]1N1CCCC1", "note": "(relative stereo) [Example 16, [Trans (±)]N-[2,3-dihydro-2-(1-pyrrolidinyl)-1H-inden-1-yl]-N-methyl-4-nitro-benzene-acetamide (isomer A)]", "values": [{"measurement": "IC50", "setting": "opiated receptor K; [4]", "result": 5, "unit": "nM"}]}
{"smiles": "CN(C(=O)Cc1ccc(Cl)c(Cl)c1)[C@H]1[C@H](N2CCCC2)c2ccccc2C1(C)C", "note": "(relative stereo) [Example 29, [Trans (±)]3,4-dichloro-N-[2,3-dihydro-1,1-dimethyl-3-(1-pyrrolidinyl)-1H-inden-2-yl]-N-methyl-benzene-acetamide]", "values": [{"measurement": "IC50", "setting": "opiated receptor K; [4]", "result": 5.6, "unit": "nM"}]}
{"smiles": "CN(C)[C@@H]1Cc2ccccc2[C@H]1N(C)C(=O)Cc1ccc(Cl)c(Cl)c1", "note": "(relative stereo) [Example 25, [Trans (±)]3,4-dichloro-N-[2,3-dihydro-2-(dimethylamino)-1H-inden-1-yl]-N-methyl-benzene-acetamide]", "values": [{"measurement": "IC50", "setting": "opiated receptor K; [4]", "result": 2.2, "unit": "nM"}]}
